What was measured:
[1] = tested on: endogenous glucose production; experiment: Hyperinsulinemic clamp in ob/ob mice; assay type: in vivo, mouse; conditions: FGF1 0.5 mg/kg every other day for a week
Description: Before the test, mice were equipped with a permanent catheter in the right atrium via the jugular vein and were allowed to recover over a period of at least 3 days. After the recovery period, the mice were placed in experimental cages. All infusion experiments were performed in conscious, unrestrained mice as described previously (van Dijk et al., 2003). During the experiment, blood glucose levels were determined every 15 minutes using a Lifescan EuroFlash glucose meter. For GC-MS analysis of [U-^13C] glucose, bloodspots on filter paper were collected from the tail vein every 30 minutes.
Ob/ob mice were treated for 1 week with rFGF1 (0.5 mg kg^−1 every other day for one week). Steady state glucose fluxes were determined for basal and hyperinsulinemic-euglycemic clamp conditions. During the first period, mice were infused with a solution containing a tracer of [U-13C] glucose (2.5 mg/ml Cambridge Isotope Laboratories, Andover, MA) at an infusion rate of 0.54 ml/h. With respect to the final period, blood glucose levels were clamped at 20 mM. For this, the mice were infused at a constant rate of 0.135 ml/h with a mixture of insulin (44 mU/ml, Actrapid, Novo Nordisk, Bagsvaerd, Denmark), somatostatin (20 μg/ml, UCB Breda, the Netherlands), 1% BSA, and glucose (200 mg/ml from which 3% [U-^13C] glucose). Additionally, a second (variable) infusion was used containing glucose (200 mg/ml from which 3% [U-^13C] glucose) to adjust blood glucose levels.

[2] = tested on: pyruvate carboxylase; experiment: Hepatic pyruvate carboxylase (Pcx) activity assay; assay type: in vivo, mouse; conditions: HFD-fed adR1WT mice, FGF1 0.5 mg/kg
Description: Pcx activity was determined by malate dehydrogenase coupling method originally reported by Payne et al. (Payne and Morris, 1969). Briefly, mice were sacrificed by decapitation. Liver samples were rapidly frozen in liquid nitrogen within 5 seconds of excision designed to avoid loss of hepatic acetyl-CoA levels. Frozen liver samples were pulverized on dry ice and approximately 100 mg of tissues were homogenized with TissueLyzer in Pcx activity assay buffer (50 mM Tris pH8, 10 mM MgCl2, 10 mM NaHCO3). Homogenates were cleared by centrifugation at 14000 rpm for 10 minutes. Cleared supernatants were diluted in Pcx activity assay buffer to approximately 1 μg/ul. Approximately 5 μg protein was loaded onto 96-well plates and the total volume was brought up to 20 ul by Pcx activity assay buffer. Absorbance at 340 nm was monitored every 9 seconds at 37° C. immediately after the addition of 80 ul Pcx reaction buffer (50 mM Tris pH8, 10 mM MgCl2, 10 mM NaHCO3, 6.25 mM ATP, 0.125 mM NADH, 2.5 mM pyruvate, malate dehydrogenase 0.025 U/ml in Pcx activity assay buffer). Pcx activity was determined as the loss of absorbance at 340 nm over time normalized to protein concentration.

FGF1: Recombinant fibroblast growth factor 1 protein, dissolved in PBS, injected subcutaneously
reduction in basal endogenous glucose production (EGP) [1]: ~25%
exogenous glucose infusion rate (GIR) ([1]; clamp conditions): higher
glucose disposal rate (GDR) ([1]; clamp conditions): not altered
reduction in pyruvate carboxylase activity [2]: ~50%
